Test results reported in ChEMBL document CHEMBL4680144, “N-thiadiazole-4-hydroxy-2-quinolone-3-carboxamides bearing heteroaromatic rings as novel antibacterial agents: Design, synthesis, biological evaluation and target identification” (Eur J Med Chem, 2020).
In brackets after ≈: the same amount, converted by molar mass. Activity calls are given as the source filed them. The calls are words filed in the database; no cut-off is given here.

Tests used:
Staphylococcus aureus [1] = experiment: Antibacterial activity against methicillin-resistant Staphylococcus aureus clinical isolate 15-2 assessed as inhibition of bacterial growth incubated for 18 to 24 hrs by broth microdilution method; type: functional; conditions: time 18-24 hrs
Staphylococcus aureus [2] = experiment: Antibacterial activity against methicillin-resistant Staphylococcus aureus clinical isolate 15-3 assessed as inhibition of bacterial growth incubated for 18 to 24 hrs by broth microdilution method; type: functional; conditions: time 18-24 hrs
Staphylococcus aureus [3] = experiment: Antibacterial activity against methicillin-resistant Staphylococcus aureus clinical isolate 15-6 assessed as inhibition of bacterial growth incubated for 18 to 24 hrs by broth microdilution method; type: functional; conditions: time 18-24 hrs
Staphylococcus aureus [4] = experiment: Antibacterial activity against methicillin-resistant Staphylococcus aureus clinical isolate 15-7 assessed as inhibition of bacterial growth incubated for 18 to 24 hrs by broth microdilution method; type: functional; conditions: time 18-24 hrs
Staphylococcus aureus [5] = experiment: Antibacterial activity against methicillin-resistant Staphylococcus aureus clinical isolate 15-8 assessed as inhibition of bacterial growth incubated for 18 to 24 hrs by broth microdilution method; type: functional; conditions: time 18-24 hrs
Staphylococcus aureus [6] = experiment: Antibacterial activity against methicillin-resistant Staphylococcus aureus clinical isolate 15-9 assessed as inhibition of bacterial growth incubated for 18 to 24 hrs by broth microdilution method; type: functional; conditions: time 18-24 hrs
[7] = system: Staphylococcus epidermidis; experiment: Antibacterial activity against methicillin-resistant Staphylococcus epidermidis clinical isolate 15-1 assessed as inhibition of bacterial growth incubated for 18 to 24 hrs by broth microdilution method; type: functional; conditions: time 18-24 hrs
[8] = system: Staphylococcus epidermidis; experiment: Antibacterial activity against methicillin-resistant Staphylococcus epidermidis clinical isolate 15-2 assessed as inhibition of bacterial growth incubated for 18 to 24 hrs by broth microdilution method; type: functional; conditions: time 18-24 hrs
[9] = system: Staphylococcus epidermidis; experiment: Antibacterial activity against methicillin-resistant Staphylococcus epidermidis clinical isolate 15-3 assessed as inhibition of bacterial growth incubated for 18 to 24 hrs by broth microdilution method; type: functional; conditions: time 18-24 hrs
Enterococcus faecalis [10] = experiment: Antibacterial activity against Enterococcus faecalis clinical isolate 15-1 assessed as inhibition of bacterial growth incubated for 18 to 24 hrs by broth microdilution method; type: functional; conditions: time 18-24 hrs
Enterococcus faecium [11] = experiment: Antibacterial activity against Enterococcus faecium clinical isolate 15-2 assessed as inhibition of bacterial growth incubated for 18 to 24 hrs by broth microdilution method; type: functional; conditions: time 18-24 hrs
Enterococcus faecalis [12] = experiment: Antibacterial activity against vancomycin-resistant Enterococcus faecalis ATCC 700802 assessed as inhibition of bacterial growth incubated for 18 to 24 hrs by broth microdilution method; type: functional; conditions: time 18-24 hrs
Enterococcus faecalis [13] = experiment: Antibacterial activity against vancomycin-resistant Enterococcus faecalis ATCC 51575 assessed as inhibition of bacterial growth incubated for 18 to 24 hrs by broth microdilution method; type: functional; conditions: time 18-24 hrs
HepG2 = experiment: Cytotoxicity against human HepG2 cells assessed as reduction in cell viability after 72 hrs by sulforhodamine B assay; type: cell-based; conditions: HepG2, 72 h
HUVEC = experiment: Cytotoxicity against HUVEC assessed as reduction in cell viability after 72 hrs by sulforhodamine B assay; type: cell-based; conditions: Homo sapiens
[14] = Selectivity index, ratio of IC50 for human HUVEC cells to MIC for methicillin-resistant Staphylococcus aureus; type: toxicity
Staphylococcus aureus [15] = experiment: Antibacterial activity against methicillin-resistant Staphylococcus aureus clinical isolate 15-1 assessed as reduction in bacterial growth treated for 20 passages; type: functional; conditions: time 24 hrs
Staphylococcus aureus [16] = experiment: Bactericidal activity against methicillin-resistant Staphylococcus aureus clinical isolate 15-1 assessed as reduction in log10CFU at 4 times MIC measured over 24 hrs by time kill kinetics analysis; type: functional
Staphylococcus aureus [17] = experiment: Bactericidal activity against methicillin-resistant Staphylococcus aureus clinical isolate 15-1 assessed as reduction in log10CFU at 8 times MIC measured over 24 hrs by time kill kinetics analysis; type: functional
[18] = Metabolic stability in mouse plasma assessed as half life measured upto 120 mins by LC-MS/MS analysis; type: ADME, cell-free
[19] = AUCinfinity in Kunming mouse at 10 mg/kg, po by HPLC analysis; type: ADME, organism-based; design: time infinity, route oral, dose 10 mg/kg; conditions: in vivo
[20] = MRTlast in Kunming mouse at 10 mg/kg, po measured upto 72 hrs by HPLC analysis; type: ADME, organism-based; conditions: in vivo
[21] = Half life in Kunming mouse at 10 mg/kg, po measured upto 72 hrs by HPLC analysis; type: ADME, organism-based; conditions: in vivo
[22] = Cmax in Kunming mouse at 10 mg/kg, po measured upto 72 hrs by HPLC analysis; type: ADME, organism-based; design: route oral, dose 10 mg/kg, time <=72; conditions: in vivo
Staphylococcus aureus [23] = experiment: In vivo antibacterial activity against methicillin resistant Staphylococcus aureus clinical isolate 15-1 infected in kunming mouse assessed as animal survival rate at 0.33 mg/kg, po administered 6 hrs prior to bacterial infection and at 0 and 6 hrs post infection and measured for 7 days (reference value: 12.5 %); type: functional; conditions: 15-1, po, 168 h, time 7 day
[24] = Protein binding in mouse plasma at 5 uM incubated for 5 hrs by equilibrium dialysis based LC-MS/MS analysis; type: ADME, cell-free; conditions: read-out: PPB
[25] = Inhibition of Staphylococcus aureus Gyrase B using linear pBR322 DNA as substrate incubated for 30 mins in presence of ATP by ADP-Glo assay
Staphylococcus aureus [26] = experiment: Inhibition of Staphylococcus aureus Gyrase B assessed as reduction in supercoiled pBR322 DNA production incubated for 30 mins by ethidium bromide staining based agarose gel electrophoresis method; conditions: dose 0.1-100 µM
Staphylococcus aureus [27] = experiment: Bactericidal activity against methicillin-resistant Staphylococcus aureus clinical isolate 15-1 assessed as reduction in log10CFU at 1 to 2 times MIC measured after 24 hrs by time kill kinetics analysis; type: functional, organism-based
Staphylococcus aureus [28] = experiment: Potency index, ratio of vancomycin MIC to test compound MIC for antibacterial activity against methicillin-resistant Staphylococcus aureus clinical isolate 15-1 assessed as inhibition of bacterial growth incubated for 18 to 24 hrs by broth microdilution method; type: functional; conditions: time 18-24 hrs
Staphylococcus aureus [29] = experiment: Potency index, ratio of vancomycin MIC to test compound MIC for antibacterial activity against methicillin-resistant Staphylococcus aureus clinical isolate 15-2 assessed as inhibition of bacterial growth incubated for 18 to 24 hrs by broth microdilution method; type: functional; conditions: time 18-24 hrs
Staphylococcus aureus [30] = experiment: Potency index, ratio of vancomycin MIC to test compound MIC for antibacterial activity against methicillin-resistant Staphylococcus aureus clinical isolate 15-3 assessed as inhibition of bacterial growth incubated for 18 to 24 hrs by broth microdilution method; type: functional; conditions: time 18-24 hrs
Staphylococcus aureus [31] = experiment: Potency index, ratio of vancomycin MIC to test compound MIC for antibacterial activity against methicillin-resistant Staphylococcus aureus clinical isolate 15-6 assessed as inhibition of bacterial growth incubated for 18 to 24 hrs by broth microdilution method; type: functional; conditions: time 18-24 hrs
Staphylococcus aureus [32] = experiment: Potency index, ratio of vancomycin MIC to test compound MIC for antibacterial activity against methicillin-resistant Staphylococcus aureus clinical isolate 15-9 assessed as inhibition of bacterial growth incubated for 18 to 24 hrs by broth microdilution method; type: functional; conditions: time 18-24 hrs
Staphylococcus aureus [33] = experiment: Potency index, ratio of vancomycin MIC to test compound MIC for antibacterial activity against methicillin resistant and vancomycin-intermediate sensitive Staphylococcus aureus ATCC 700699 assessed as inhibition of bacterial growth incubated for 18 to 24 hrs by broth microdilution method; type: functional; conditions: time 18-24 hrs
Staphylococcus aureus [34] = experiment: Potency index, ratio of vancomycin MIC to test compound MIC for antibacterial activity against methicillin resistant and vancomycin-intermediate sensitive Staphylococcus aureus ATCC 700788 assessed as inhibition of bacterial growth incubated for 18 to 24 hrs by broth microdilution method; type: functional; conditions: time 18-24 hrs
Enterococcus faecalis [35] = experiment: Potency index, ratio of vancomycin MIC to test compound MIC for antibacterial activity against Enterococcus faecalis clinical isolate 15-2 assessed as inhibition of bacterial growth incubated for 18 to 24 hrs by broth microdilution method; type: functional; conditions: time 18-24 hrs
Enterococcus faecium [36] = experiment: Potency index, ratio of vancomycin MIC to test compound MIC for antibacterial activity against Enterococcus faecium clinical isolate 15-1 assessed as inhibition of bacterial growth incubated for 18 to 24 hrs by broth microdilution method; type: functional; conditions: time 18-24 hrs

**Q.** What does the source list for `CCn1c(=O)c(C(=O)Nc2nnc(-c3nccs3)s2)c(O)c2ccccc21`?
**A.** MIC (Staphylococcus aureus [1]): 0.5 µg/mL (≈ 1.25 µM); MIC (Staphylococcus aureus [2]): 0.5 µg/mL (≈ 1.25 µM); MIC (Staphylococcus aureus [3]): 0.5 µg/mL (≈ 1.25 µM); MIC (Staphylococcus aureus [4]): 0.5 µg/mL (≈ 1.25 µM); MIC (Staphylococcus aureus [5]): 0.5 µg/mL (≈ 1.25 µM); MIC (Staphylococcus aureus [6]): 0.25 µg/mL (≈ 0.626 µM); MIC [7]: 0.5 µg/mL (≈ 1.25 µM); MIC [8]: 0.5 µg/mL (≈ 1.25 µM); MIC [9]: 0.5 µg/mL (≈ 1.25 µM); MIC (Enterococcus faecalis [10]): 0.5 µg/mL (≈ 1.25 µM); MIC (Enterococcus faecium [11]): 1 µg/mL (≈ 2.5 µM); MIC (Enterococcus faecalis [12]): 0.5 µg/mL (≈ 1.25 µM); MIC (Enterococcus faecalis [13]): 0.5 µg/mL (≈ 1.25 µM); IC50 (HepG2): 55.3 µM; IC50 (HUVEC): 38.8 µM; selectivity ratio [14]: 77.6; MIC (Staphylococcus aureus [15]): 0.5 µg/mL (≈ 1.25 µM); Activity (Staphylococcus aureus [16]): >3 log10CFU/ml; Activity (Staphylococcus aureus [17]): 3 log10CFU/ml; half-life [18]: 8.39 h; AUC(0-inf) [19]: 2620 ng·h/mL; MRT last at 72 h [20]: 2.7 h; half-life [21]: 2.3 h; Cmax [22]: 827 ng/mL; survival at 0.33 mg/kg (Staphylococcus aureus [23]): 25%; fraction unbound at 5 h, 5 µM [24]: 0.001; IC50 [25]: 0.15 µM; inhibition (Staphylococcus aureus [26]): Dose-dependent effect; Activity (Staphylococcus aureus [27]): Active; Ratio (Staphylococcus aureus [28]): 2; Ratio (Staphylococcus aureus [29]): 2; Ratio (Staphylococcus aureus [30]): 2; Ratio (Staphylococcus aureus [31]): 2; Ratio (Staphylococcus aureus [32]): 2; Ratio (Staphylococcus aureus [33]): 2; Ratio (Staphylococcus aureus [34]): 2; Ratio (Enterococcus faecalis [35]): 2; Ratio (Enterococcus faecium [36]): 2
